Source: US20250144127A1, “LONG-CHAIN COMPOUND AND USE THEREOF” (Burgeon Therapeutics Co., Ltd., priority 2021, published 2025)

Key:
[1] = molecular target: T1, Human-derived ACLY protein (Homo sapiens, UniProt P53396); test: ACLY citrate cleavage enzyme inhibition, ADP-Glo assay; assay type: biochemical; settings: 25 nM enzyme, 30 min, 37° C., read-out: IC50 for inhibition of ACLY enzyme activity (mean ± SD)
T1 construct: purchased Beijing Yiqiao Shenzhou Technology Co., Ltd 11769-H07B
T1 sequence (P53396 1-1101): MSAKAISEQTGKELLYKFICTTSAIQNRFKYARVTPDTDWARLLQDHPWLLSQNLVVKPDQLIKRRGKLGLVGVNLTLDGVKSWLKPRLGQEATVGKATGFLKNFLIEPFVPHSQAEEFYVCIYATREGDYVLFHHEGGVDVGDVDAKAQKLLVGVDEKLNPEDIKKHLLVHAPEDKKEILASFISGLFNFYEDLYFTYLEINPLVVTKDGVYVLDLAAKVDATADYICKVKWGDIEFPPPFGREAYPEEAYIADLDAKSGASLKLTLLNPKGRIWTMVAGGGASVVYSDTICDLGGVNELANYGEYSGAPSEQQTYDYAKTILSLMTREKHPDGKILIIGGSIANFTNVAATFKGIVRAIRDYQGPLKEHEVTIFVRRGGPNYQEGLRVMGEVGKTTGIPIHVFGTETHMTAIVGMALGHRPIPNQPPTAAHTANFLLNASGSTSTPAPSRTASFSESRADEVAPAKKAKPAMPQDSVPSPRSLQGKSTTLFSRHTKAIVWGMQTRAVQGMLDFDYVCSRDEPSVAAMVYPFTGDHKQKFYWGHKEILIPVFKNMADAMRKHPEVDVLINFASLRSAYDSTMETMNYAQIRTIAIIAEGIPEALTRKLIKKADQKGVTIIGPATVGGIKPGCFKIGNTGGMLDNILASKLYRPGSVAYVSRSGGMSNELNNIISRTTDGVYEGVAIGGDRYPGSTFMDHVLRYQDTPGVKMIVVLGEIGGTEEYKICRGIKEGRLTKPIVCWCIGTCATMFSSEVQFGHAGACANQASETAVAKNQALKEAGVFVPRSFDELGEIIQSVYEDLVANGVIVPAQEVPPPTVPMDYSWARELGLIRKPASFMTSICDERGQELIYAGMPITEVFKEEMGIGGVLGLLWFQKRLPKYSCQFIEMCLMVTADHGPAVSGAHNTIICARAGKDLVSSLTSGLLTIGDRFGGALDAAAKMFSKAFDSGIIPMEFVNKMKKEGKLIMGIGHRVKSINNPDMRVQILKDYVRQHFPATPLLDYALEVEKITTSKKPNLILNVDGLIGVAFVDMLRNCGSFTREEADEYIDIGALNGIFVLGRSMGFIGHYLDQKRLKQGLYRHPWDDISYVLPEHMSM
Excerpt: The ACLY-catalyzed citric acid cleavage process requires the consumption of one molecule of ATP to activate citric acid. Based on this reaction principle, the inventors utilized an ADP-Glo assay kit to detect the amount of ATP converted to ADP in response to the catalytic activity of ACLY. After the establishment of the activity measurement system and optimization of the reaction conditions, the inventors evaluated the ACLY inhibitory activity of the obtained novel ACLY small molecule inhibitors.
Activity test protocol: Human-derived ACLY protein was purchased from Beijing Yiqiao Shenzhou Technology Co., Ltd (Item No. 11769-H07B), and ADP-Glo assay kit was purchased from Promega (Item No. V9102). The total volume of the reaction was 5 μL, which consisted of a mixture of three parts: 1 μL of 2% DMSO, 2 μL of the substrate mixture, and 2 μL of the enzyme (final concentration of 25 nM). Then 1 μL of different concentrations of compounds were added for incubation. Reaction conditions: 30 min, 37° C. Then 2.5 μL of ADP Reagent from ADP-Glo Kit was used, mixed well and reacted for 2 h. 5 μL of ADP Detection was added, centrifuged and mixed well. Then the full wavelength value was read from Envision multifunctional plate reader.
Results: Firstly, the cumulative amount of fluorescence intensity of the enzyme in 30 min reaction time (RFU/min) was calculated to represent the initial velocity of the enzyme, and then the ratio of the enzyme's velocity with the addition of compounds (vsample) to the enzyme's velocity without the addition of compounds (vDMSO) was calculated to be the percentage of activity for each concentration group of the samples (Activity rate %), with the formula: % Activity=(V(sample)/(v(DMSO))×100%. The logarithmic value of the concentration was plotted against the activity percentage, and then a non-linear regression was used to calculate the fitted curve. The software GraphPad Prism 8.0 (formula log (inhibitor) vs. response—Variable slope) was used to fit the curve and calculate the IC50 value, and the results are shown in the table below.

[2] = system: primary mouse hepatocytes; test: Inhibition of de novo lipid synthesis in primary hepatocytes, [1,2-14C]-sodium acetate tracer; assay type: cell-based; settings: Hepatocyte, compound 12.5 μM, 4 h, [1,2-14C]-acetate, read-out: Lipid synthesis inhibition (%) (mean ± SD)
Description: Primary hepatic cell isolation and walling: the mouse liver was lavaged by calcium-free perfusate, then digested using collagenase and mouse primary hepatocytes were obtained by density gradient centrifugation, and were inoculated in 6-well plates at a density of 3×10^5/ml (0.2% gelatin was coated before inoculating). After inoculating, the cells were cultured and adhered for 6 h. The medium was changed to serum-free LG-DMEM (containing 2× double antibody) and starved the cells overnight.
Isotope tracing: the next day, the medium was switched to serum-free LG-DMEM containing 10 nM insulin and the corresponding concentration of compounds (1950 μL, 4 replicate wells per group); 0.1 μCi of [1,2-^14C]-acetate serum-free medium was added to each well, and the plates were then incubated for 4 h in the incubator.
Lipid saponification: Add 1.6 mL of ice PBS to each well for washing 3 times, shake the plate to dry and add 600 μL of 0.5 M KOH to each well to lysis for 1 h. Pipette 480 μL into a glass test tube with 400 μL of 20% KOH (methanol was used as solvent), shake and mix well, and then place it in a water bath at 95° C. to saponify for 3 h. The remaining lysate was used for the determination of the concentration of proteins. Add 400 μL of petroleum ether to each tube, pipette 5-6 times and centrifuge at 2500 rpm for 5 min, take 350 μL of the upper layer of the clear solution to the EP tube, and then add 400 μL of petroleum ether to repeat the extraction for 2 times (a total of 3 times). After complete transfer of the supernatant, 200 μL of water and 400 μL of 5N sulfuric acid were added to each tube for acidification, and the mixture was shaken and mixed. Add 400 μL of petroleum ether to each tube, pipette 5-6 times and centrifuge at 2500 rpm for 5 min, take 350 μL of the upper layer of the clear solution to the EP tube, then add 400 μL of petroleum ether and repeat the extraction for 2 times (a total of 3 times). Place in a fume hood and evaporate the petroleum ether overnight.
Isotope participation quantification: 1700 μL of scintillation solution was added to each tube and read.
Data processing and analysis: Firstly, the isotopic reference (R control, unit: CCPM/mg protein) of free fatty acids and cholesterol was calculated for the Control group of untreated mouse primary hepatocytes within 4 hours, which represented the basal synthesis. The percent inhibition of lipid synthesis was then calculated for each concentration group of the sample.

golden hamster = test: High-fat and high-cholesterol diet-induced hyperlipidemia model of golden hamster; assay type: in vivo; settings: for serum LDL cholesterol / serum total cholesterol: 1 time/day, 7 days, vs control group
Excerpt: Dosing regimen: The hyperlipidemia model of golden hamster is recognized as one of the ideal animal models for studying hyperlipidemia drug therapy (pharmacodynamic evaluation). In order to preliminarily investigate the existence of potential regulatory effects of the candidate compounds on hepatic lipid metabolism homeostasis, the high-fat and high-cholesterol diet-induced hyperlipidemia model of golden hamster was utilized for preliminary pharmacodynamic evaluation. The specific protocol was as follows. 56 golden hamsters, males, were modeled on high-fat and high-cholesterol diet (Research diet, item number C11953) for two weeks, and 8 golden hamsters were reserved as blank control group. Subsequently, group administration (7 groups, n=8) was performed, i.e., model control group, positive control ETC-1002 30 mg/kg group, compound A3 10 mg/kg and 30 mg/kg group, compound A4 10 mg/kg and 30 mg/kg group, and blank control group. The compounds in each group were configured with saline (0.9% NaCl) and administered at a frequency of 1 time/day for a 7-day dosing cycle.
Indicator test: The body weight and food intake of golden hamsters were closely monitored during the administration period. After 7 days of administration, blood was collected from the orbital region of each group (starved overnight for about 16 hours), centrifuged to obtain serum, and stored in cryopreservation, and then total cholesterol and LDL cholesterol were detected in the serum. The relative amount of the relevant indexes was calculated as follows: Relative amount (100%)=the amount in the administered group/the amount in the model control group*100%.

[3] = system: primary hepatocytes from WT mice; test: De novo lipid synthesis in WT primary hepatocytes, [14C]-citric acid tracer; assay type: cell-based; settings: WT mouse hepatocytes, [14C]-citric acid substrate
[4] = system: ACLY knockdown primary hepatocytes; test: De novo lipid synthesis in ACLY knockdown primary hepatocytes, [14C]-citric acid tracer; assay type: cell-based, mouse; settings: [14C]-citric acid substrate
Excerpt: Test protocol: In order to further investigate the dependence of the inhibitory effect of the series of compounds on de novo lipid synthesis on ACLY, the inventors chose ACLY knockdown primary hepatocytes for further evaluation of de novo lipid synthesis, while compound ETC-1002 was used as a positive control. Specifically, the experimental protocol was as above, and 0.1 μCi/well [^14C]-citric acid was used for tracing.

[5] = Oral pharmacokinetics in ICR mice; assay type: in vivo, mouse; settings: male, mouse, ICR mice, oral, 30 mg/kg, plasma
Description: Dosing regimen: 6 normal ICR mice, male, were divided into 2 groups (n=3), one group was orally given the positive control ETC-1002, and one group was orally given the tested compound A3, both administered at a dose of 30 mg/kg; blood was taken from the eye orbits at different time points before and after the administration of the drug, and the plasma drug concentration was detected.

[6] = golden hamster, during administration

| SMILES | IC50 [1] | inhibition at 12.5 µM [2] | also measured |
| --- | --- | --- | --- |
| CC(C)(CCCC/C=C\CCCCCC(C)(C)C(=O)O)C(=O)O [Compound A4] | 53.9 ± 13.8 µM | 78.2 ± 4.3% | serum LDL cholesterol (golden hamster; 10 mg/kg): did not change significantly; serum total cholesterol (golden hamster; 10 mg/kg): did not change significantly; serum LDL cholesterol (golden hamster; 30 mg/kg): significantly reduce; serum total cholesterol (golden hamster; 30 mg/kg): significantly reduce; body weight (golden hamster; [6]): significant decrease; food intake (golden hamster; [6]): significant decrease; tolerance observation (golden hamster; [6]): intolerance phenomena such as slowed activity |
| CC(C)(CCCCC/C=C\CCCCCC(C)(C)C(=O)O)C(=O)O [Compound A6] | 25.5 ± 6.8 µM | 68.7 ± 20.9% |  |
| C/C(CCCCCC(C)(C)C(=O)O)=C(\C)CCCCC(C)(C)C(=O)O [Compound A11] | 40.2 ± 2.9 µM |  |  |
| CC(C)(CCCCCC1CC1CCCCC(C)(C)C(=O)O)C(=O)O (stereo not shown) [Compound A12] | 56.9 ± 4.7 µM | 38.7 ± 11.4% |  |
| CC(C)(CCCCCC/C=C/CCCCCCC(C)(C)C(=O)O)C(=O)O [Compound A9] | 25.8 ± 9.2 µM | 30.9 ± 4.2% |  |
| CC(C)(CCCC/C=C/CCCCC(C)(C)C(=O)O)C(=O)O [Compound A1] | 42.3 ± 6.5 µM |  |  |
| CC(C)(CCCC/C=C\CCCCC(C)(C)C(=O)O)C(=O)O [Compound A2] | 105 ± 7.1 µM | 80.9 ± 5.9% |  |
| CC(C)(CCCCCC(O)CCCCCC(C)(C)C(=O)O)C(=O)O [ETC-1002, Bempedoic acid, reference compound] |  | 46.3 ± 15.3% | de novo synthesis of triglycerides ([3]; FIG. 1 A): significantly inhibited; de novo synthesis of cholesterol ([3]; FIG. 1 B): significantly inhibited; inhibitory effect on de novo synthesis of cholesterol [4]: significantly attenuated or even the inhibitory effect was not manifested; inhibitory effect on de novo synthesis of triglycerides [4]: significantly attenuated or even the inhibitory effect was not manifested; AUC(0-inf) [5]: 15600 ng·h/mL; AUC(0-t) [5]: 14400 ng·h/mL; Cmax [5]: 3810 ng/mL; Tmax [5]: 0.25 h; half-life [5]: 4.45 h; MRT inf ([5]; read-out: MRT0-∞): 6.81 h |

Further molecules by falling IC50 [1], results first:

| IC50 [1] | SMILES | inhibition at 12.5 µM [2] | also measured |
| --- | --- | --- | --- |
| 21.3 ± 9.7 µM | CC(C)(CCCCC/C=C\CCCCCCC(C)(C)C(=O)O)C(=O)O [Compound A8] | 21.6 ± 1.3% |  |
| 16.7 ± 1.8 µM | CC(C)(CCCCC/C=C/CCCCCC(C)(C)C(=O)O)C(=O)O [Compound A5] | 56.6 ± 7.6% |  |
| 12 ± 2.2 µM | CC(C)(CCCCC/C=C/CCCCCCC(C)(C)C(=O)O)C(=O)O [Compound A7] |  |  |
| 9.6 ± 5.1 µM | CC(C)(CCCCCC/C=C\CCCCCCC(C)(C)C(=O)O)C(=O)O [Compound A10] | 21.1 ± 11.7% |  |
